The values that follow come from patent publication US9790169B2, “IDO inhibitors” (BRISTOL-MYERS SQUIBB COMPANY, priority 2015, dated 2017).

In this assay the target is human IDO1 (Homo sapiens, UniProt P14902). Put plainly: Assessment of human IDO-1 inhibitory activity in HEK cells (human IDO1/HEK293 cells, kynurenine read-out with Ehrlich reagent, absorbance 490 nm). Type of assay: cell-based. Details: expressed in transfected cells. The settings on record: HEK Human IDO-1 cellular assay. The method in brief: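 Kynurenine output from stably IDO1-transfected HEK293 cells (10,000/well, phenol red-free RPMI, 10% FBS) after 20 h compound exposure at 37 °C. The reaction was stopped with 0.2% TCA and heated 30 min at 50 °C, then the supernatant was mixed with Ehrlich reagent and read at 490 nm. IC50 was set against DMSO and a 500 nM reference standard as 0 and 100% inhibition.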
Sequence of human IDO1 (P14902 whole entry): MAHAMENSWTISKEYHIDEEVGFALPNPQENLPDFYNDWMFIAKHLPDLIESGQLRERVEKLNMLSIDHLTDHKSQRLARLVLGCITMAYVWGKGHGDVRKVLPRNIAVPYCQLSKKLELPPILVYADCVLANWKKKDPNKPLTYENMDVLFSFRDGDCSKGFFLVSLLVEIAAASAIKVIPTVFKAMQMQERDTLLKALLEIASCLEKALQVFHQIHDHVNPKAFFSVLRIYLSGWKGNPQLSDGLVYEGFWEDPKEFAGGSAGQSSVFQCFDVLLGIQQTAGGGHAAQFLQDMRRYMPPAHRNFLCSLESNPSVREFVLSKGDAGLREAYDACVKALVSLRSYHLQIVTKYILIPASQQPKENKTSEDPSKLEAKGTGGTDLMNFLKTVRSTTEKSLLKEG
As for `CCN(c1ccc(C(C)CC(=O)O)cc1NC(=O)Nc1ccc(Cl)cc1F)C1CCOCC1` (single isomer, unassigned) [Example 637 E1, 3-(3-(3-(4-Chloro-2-fluorophenyl)ureido)-4-(ethyl(tetrahydro-2H-pyran-4-yl)amino)phenyl)butanoic acid], the IC50 was less than 5 nM.

For the molecule `CCC(CC(=O)O)c1ccc(N2CCC[C@H]2C(C)(C)O)c(Nc2ccc3c(c2)OC(F)(F)O3)c1` (single isomer, unassigned) [Example 821], the IC50 was less than 50 nM.

On to `CCC(CC(=O)O)c1ccc(N(CC(C)C)C2CCCCC2)c(NC(=O)Cc2ccc(Cl)cc2F)c1` (racemic) [Example 1085], for which the IC50 is less than 5 nM.

Turning to `CC[C@H](CC(=O)O)c1ccc(N(CC)C2CCOCC2)c(Nc2ccn3nc(C)c(F)c3c2)c1` (single isomer, unassigned) [Example 513], the IC50 was less than 50 nM.

`CC[C@@H](CC(=O)O)c1ccc(N(CC(C)C)CC(C)C)c(Nc2ccc3nc(C)sc3c2)c1` (single isomer, unassigned) [Example 9]: the IC50 was greater than 50 nM.

`CCOc1ncc(Nc2cc([C@@H](CC)CC(=O)O)ccc2N(CC)C2CCCCC2)cn1` (single isomer, unassigned) [Example 281]: the IC50 was less than 50 nM.

As to `COCC(CC(=O)O)c1ccc(N(CC(C)C)C2CCOCC2)c(NC(=O)Nc2ccc(OC(F)(F)F)cc2)c1` (single isomer, unassigned) [Example 1211, 3-(4-(Isobutyl(tetrahydro-2H-pyran-4-yl)amino)-3-(3-(4-(trifluoromethoxy)phenyl)ureido)phenyl)-4-methoxybutanoic acid], the IC50 was greater than 50 nM.

As to `CCOc1ccc(NC(=O)Nc2cc(C(CC)CC(=O)O)c(F)cc2N(CC(C)C)CC(C)C)cc1` (single isomer, unassigned) [Example 1132, 3-(4-(Diisobutylamino)-5-(3-(4-ethoxyphenyl)ureido)-2-fluorophenyl)pentanoic acid], the IC50 is less than 5 nM.

In the case of `CCN(c1ccc(C(C)CC(=O)O)cc1NC(=O)Nc1ccccc1F)C1CCOCC1` (single isomer, unassigned) [Example 638, 3-(4-(ethyl(tetrahydro-2H-pyran-4-yl)amino)-3-(3-(2-fluorophenyl)ureido)phenyl) butanoic acid], the IC50 was less than 50 nM.

Turning to `COCC(CC(=O)O)c1ccc(N(CC2CC2)C2CCOCC2)c(Nc2ccc(C(N)=O)nc2)c1` (single isomer, unassigned) [Example 688, 3-(3-((6-carbamoylpyridin-3-yl)amino)-4-((cyclopropylmethyl) (tetrahydro-2H-pyran-4-yl)amino)phenyl)-4-methoxybutanoic acid], the IC50 is greater than 50 nM.

As for `CCOc1ncc(Nc2cc(C(C)CC(=O)O)ccc2N(CC)C2CCOCC2)cn1` (single isomer, unassigned) [Example 619, 3-(3-((2-ethoxypyrimidin-5-yl)amino)-4-(ethyl (tetrahydro-2H-pyran-4-yl)amino)phenyl)butanoic acid], the IC50 was less than 50 nM.

As for `CCN(c1ccc(C(C)CC(=O)O)cc1NC(=O)Nc1ccc(C)cc1)C1CCOCC1` (single isomer, unassigned) [Example 641, 3-(4-(ethyl(tetrahydro-2H-pyran-4-yl)amino)-3-(3-(p-tolyl)ureido)phenyl)butanoic acid], the IC50 is greater than 50 nM.

`COCC(CC(=O)O)c1cc(F)c(N(CC(C)C)CC(C)C)c(NC(=O)Cc2ccc(C)cc2)c1` (single isomer, unassigned) [Example 1190, 3-(4-(Diisobutylamino)-3-fluoro-5-(2-(p-tolyl)acetamido)phenyl)-4-methoxybutanoic acid]: the IC50 was less than 5 nM.

With `CCC(CC(=O)O)c1cc(F)c(N(CC(C)C)CC(C)C)c(NC(=O)Cc2ccc(F)cc2F)c1` (racemic) [Example 1082], the IC50 is less than 5 nM.

In the case of `CCOc1ccc(NC(=O)Nc2cc(C(C)CC(=O)O)ccc2N(CC(C)C)C2CCOCC2)cc1` (single isomer, unassigned) [Example 960, 3-(3-(3-(4-ethoxyphenyl)ureido)-4-(isobutyl(tetrahydro-2H-pyran-4-yl)amino)phenyl)butanoic acid], the IC50 is less than 50 nM.

For `CCOc1ccc(NC(=O)Nc2cc([C@@H](CC)CC(=O)O)ccc2N(CC(C)C)C2CCS(=O)(=O)CC2)cc1` (single isomer, unassigned) [Example 217], the IC50 was greater than 50 nM.

On to `CCC(CC(=O)O)c1ccc(N2CC[C@H](O)C2)c(Nc2ccc(Cl)cc2)c1` (single isomer, unassigned) [Example 266], for which the IC50 is greater than 50 nM.

For `CCOc1ccc(Nc2cc([C@H](CC)CC(=O)O)ccc2N(CC(C)(C)O)C2CCOCC2)c(F)c1` (single isomer, unassigned) [Example 206], the IC50 is less than 50 nM.

On to `COCC(CC(=O)O)c1ccc(N(CC2CC2)C2CCOCC2)c(Nc2ccc(Cl)c(OCC3CC3)c2)c1` (single isomer, unassigned) [Example 683, 3-(3-((4-chloro-3-(cyclopropylmethoxy)phenyl)amino)-4-((cyclopropylmethyl) (tetrahydro-2H-pyran-4-yl)amino)phenyl)-4-methoxybutanoic acid], for which the IC50 is greater than 50 nM.

Consider `CC(CC(=O)O)c1ccc(N(CC(C)(C)O)C2CCCCC2)c(Nc2ccc(Cl)c(OCC(F)(F)F)c2)c1` (single isomer, unassigned) [Example 51, 3-(3-((4-chloro-3-(2,2,2-trifluoroethoxy)phenyl)amino)-4-(cyclohexyl(2-hydroxy-2-methylpropyl)amino)phenyl)butanoic acid], for which the concentration for half-maximal inhibition (IC50) is greater than 50 nM.

For the molecule `CCC(CC(=O)O)c1cc(F)c(N(CC(C)C)CC(C)C)c(NC(=O)Nc2ccc(Cl)cc2F)c1` (single isomer, unassigned) [981-1], the IC50 was less than 5 nM.

In the case of `CCN(c1ccc(C(CC(=O)O)c2ccccc2)cc1NC(=O)Nc1ccc(OC)cc1F)C1CCOCC1` (single isomer, unassigned) [Example 586, 3-(4-(ethyl(tetrahydro-2H-pyran-4-yl)amino)-3-(3-(2-fluoro-4-methoxyphenyl)ureido)phenyl)-3-phenylpropanoic acid], the IC50 was greater than 50 nM.

Consider `CC[C@@H](CC(=O)O)c1ccc(N(CC(C)(C)O)C2CCOCC2)c(NC(=O)Nc2ccc(C)cc2)c1` (single isomer, unassigned) [Example 207], for which the IC50 was greater than 50 nM.

Turning to `CC[C@H](CC(=O)O)c1ccc(N(CC(C)(C)O)C2CCOCC2)c(NC(=O)Nc2ccc(C)cc2)c1` (single isomer, unassigned) [Example 208], the IC50 was greater than 50 nM.

`CCOc1ncc(Nc2cc(C(C)(C)CC(=O)O)ccc2N(CC)C2CCOCC2)cn1` [Example 159, 3-(3-((2-Ethoxypyrimidin-5-yl)amino)-4-(ethyl(tetrahydro-2H-pyran-4-yl)amino)phenyl)-3-methylbutanoic acid]: the IC50 is less than 50 nM.

For the molecule `CCC(CC(=O)O)c1ccc(N(CC(C)C)CC(C)C)c(NC(=O)Cc2ccc(C)cc2)c1` (single isomer, unassigned) [Example 1103 E1, 3-(4-(Diisobutylamino)-3-(2-(p-tolyl)acetamido)phenyl)pentanoic acid], the IC50 is less than 5 nM.

For the molecule `CCOc1ncc(Nc2cc(C(CC)CC(=O)O)cc(F)c2N(CC(C)C)CC(C)C)cn1` (single isomer, unassigned) [Example 103, 3-(4-(diisobutylamino)-3-((2-ethoxypyrimidin-5-yl)amino)-5-fluorophenyl)pentanoic acid], the IC50 was less than 5 nM.

Take `CCOc1ccc(Nc2cc([C@H](CC)CC(=O)O)ccc2N(CC)C2CCOCC2)nc1` (single isomer, unassigned) [Example 522]: the IC50 is less than 5 nM.

`CC[C@@H](CC(=O)O)c1ccc(N(CC)C2CCOCC2)c(NC(=O)Nc2ccc(Cl)cc2F)c1` (single isomer, unassigned) [Example 489]: the IC50 was less than 5 nM.

Consider `CCOc1ccc(NC(=O)Nc2cc(C(CC(=O)O)C3CC3)ccc2N(CC(C)C)C2CCOCC2)cc1` (single isomer, unassigned) [Example 1205 Enantiomer 1, 3-Cyclopropyl-3-(3-(3-(4-ethoxyphenyl)ureido)-4-(isobutyl(tetrahydro-2H-pyran-4-yl)amino)phenyl)propanoic acid], for which the IC50 is less than 50 nM.

Consider `CCC(CC(=O)O)c1ccc(N(CC)C2CCOCC2)c(NC(=O)Nc2cnc(C)nc2)c1` (single isomer, unassigned) [Example 488 Enantiomer 1, 3-(4-(Ethyl(tetrahydro-2H-pyran-4-yl)amino)-3-(3-(2-methylpyrimidin-5-yl)ureido)phenyl)pentanoic acid], for which the IC50 was greater than 50 nM.

As to `COCC(CC(=O)O)c1cc(F)c(N(CC(C)C)C2CCCCC2)c(NC(=O)Nc2cc(C)on2)c1` (single isomer, unassigned) [Example 1167, 3-(4-(cyclohexyl(isobutyl)amino)-3-fluoro-5-(3-(5-methylisoxazol-3-yl)ureido)phenyl)-4-methoxybutanoic acid], the IC50 is less than 5 nM.

With `CCC(CC(=O)O)c1ccc(N2CCOC[C@H]2C(C)C)c(Nc2ccc3c(c2)OC(F)(F)O3)c1` (single isomer, unassigned) [Example 904], the IC50 was less than 5 nM.

Consider `CCC(CC(=O)O)c1ccc(N(CC2CC2)C2CCOCC2)c(NC(=O)Nc2ccc(Cl)cc2F)c1` (single isomer, unassigned) [Example 696, 3-(3-(3-(4-Chloro-2-fluorophenyl)ureido)-4-((cyclopropylmethyl)(tetrahydro-2H-pyran-4-yl)amino)phenyl)pentanoic acid], for which the IC50 is less than 5 nM.

In the case of `CCOc1ncc(Nc2cc(C(CC)CC(=O)O)ccc2N2CCOC[C@H]2C(C)C)cn1` (single isomer, unassigned) [Example 891], the concentration for half-maximal inhibition (IC50) was greater than 50 nM.

As to `CCOc1ccc(Nc2cc([C@H](CC)CC(=O)O)ccc2N2CCC[C@H]2C(C)(C)O)cc1` (single isomer, unassigned) [Example 816], the IC50 was greater than 50 nM.

`COCC(CC(=O)O)c1ccc(N(CC(C)C)CC(C)C)c(NC(=O)Nc2ccc(C)cc2)c1` (single isomer, unassigned) [993-1]: the IC50 was less than 50 nM.
